Each structure is given as a SMILES string. pEC50, pKd: −log10 of the molar value. Activity calls are given as the source filed them. The rule behind the calls is not given here.

For assay [1], the target named is T1, Son of sevenless homolog 1 (Homo sapiens, UniProt Q07889).
T1 sequence (Q07889 whole entry): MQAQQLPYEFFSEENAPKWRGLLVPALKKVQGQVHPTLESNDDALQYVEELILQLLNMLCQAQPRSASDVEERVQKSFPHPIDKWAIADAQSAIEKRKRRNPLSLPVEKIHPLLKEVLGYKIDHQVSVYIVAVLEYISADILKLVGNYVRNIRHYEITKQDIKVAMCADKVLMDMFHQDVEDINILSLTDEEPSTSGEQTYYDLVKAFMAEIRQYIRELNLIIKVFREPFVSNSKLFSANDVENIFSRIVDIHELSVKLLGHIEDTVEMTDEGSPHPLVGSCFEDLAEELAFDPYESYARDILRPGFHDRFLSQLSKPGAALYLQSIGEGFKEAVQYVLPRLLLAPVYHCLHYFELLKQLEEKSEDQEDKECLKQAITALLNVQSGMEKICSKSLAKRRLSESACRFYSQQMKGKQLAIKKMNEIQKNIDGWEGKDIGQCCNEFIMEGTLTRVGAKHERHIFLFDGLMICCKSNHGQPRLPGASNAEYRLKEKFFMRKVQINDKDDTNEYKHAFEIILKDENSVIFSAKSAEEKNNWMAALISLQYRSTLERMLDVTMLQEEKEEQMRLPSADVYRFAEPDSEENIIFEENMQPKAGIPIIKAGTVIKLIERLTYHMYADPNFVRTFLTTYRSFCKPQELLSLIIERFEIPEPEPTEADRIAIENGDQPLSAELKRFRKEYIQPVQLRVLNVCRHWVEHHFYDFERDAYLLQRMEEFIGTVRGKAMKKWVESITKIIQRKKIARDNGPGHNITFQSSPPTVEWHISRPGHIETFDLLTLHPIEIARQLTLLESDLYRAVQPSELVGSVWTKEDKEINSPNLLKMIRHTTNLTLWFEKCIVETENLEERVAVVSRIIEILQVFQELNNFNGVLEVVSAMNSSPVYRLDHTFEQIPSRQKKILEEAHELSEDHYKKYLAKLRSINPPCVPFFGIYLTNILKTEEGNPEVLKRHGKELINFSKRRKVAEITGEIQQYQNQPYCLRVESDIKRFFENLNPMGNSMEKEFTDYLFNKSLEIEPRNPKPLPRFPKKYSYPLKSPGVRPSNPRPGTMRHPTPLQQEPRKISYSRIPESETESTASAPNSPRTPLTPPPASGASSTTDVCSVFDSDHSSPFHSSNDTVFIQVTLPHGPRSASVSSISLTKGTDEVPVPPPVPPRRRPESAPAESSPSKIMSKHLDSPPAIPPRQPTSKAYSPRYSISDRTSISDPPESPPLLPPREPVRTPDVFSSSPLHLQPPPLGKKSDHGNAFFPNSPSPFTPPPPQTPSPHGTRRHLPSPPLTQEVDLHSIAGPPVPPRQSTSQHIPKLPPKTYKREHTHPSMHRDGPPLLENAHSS
The experiment in a line: Binding affinity to GST-tagged human SOS1 (564 to 1049 residues) expressed in Escherichia coli BL21 (DE3) cells assessed as binary complex formation by measuring dissociation constant incubated for 15 mins by fluorescence polarization-based displacement assay.

The target in assay [2] is T2, von Hippel-Lindau disease tumor suppressor/Son of sevenless homolog 1 (Homo sapiens) (UniProt Q07889+P40337). The experiment in a line: PROTAC activity at VHL/SOS1 in human NCI-H358 cells assessed as induction of SOS1 protein degradation at 1.0 uM incubated for 24 hrs by Immunoblot analysis relative to control. It counts as cell-based. For orientation: Immunoblotting shows a protein as a band on a membrane.

The target of assay [3] is von Hippel-Lindau disease tumor suppressor/Son of sevenless homolog 1/Elongin-B/Elongin-C (Homo sapiens) (UniProt Q07889+P40337+Q15370+Q15369). The experiment in a line: Binding affinity to GST tagged human SOS1(564 to 1049 residues)-6his tagged human VHL (54 to 213 residues)-human ElonginC (17 to 112 residues)-human ElonginB (1 to 104 residues) expressed in Escherichia coli BL21 (DE3) cells assessed as ternary complex formation by measuring maximal HTRF signals incubated for 15 mins by HTRF analysis. In general terms: TR-FRET usually uses a lanthanide donor and a delayed reading to cut background.

Assay [4] has as its target T3, Son of sevenless homolog 1 (Homo sapiens) (UniProt Q07889).
T3 sequence (whole entry): T1 sequence (Q07889 whole entry)
In words: Co-operativity factor, ratio of Kd for binding affinity to GST-tagged human SOS1 (564 to 1049 reisudes) expressed in Escherichia coli BL21 (DE3) cells assessed as binary complex formation to Kd for binding affinity to GST-tagged human SOS1 (564 to 1049 residues) expressed in Escherichia coli BL21 (DE3) cells assessed as ternary complex formation in the presence of 6His tagged human VCB.

Assay [5] concerns the target T2, von Hippel-Lindau disease tumor suppressor/Son of sevenless homolog 1 (Homo sapiens). In words: PROTAC activity at VHL/SOS1 in human NCI-H358 cells assessed as induction of SOS1 protein degradation by measuring maximal efficacy at 2 to 2000 nM incubated for 24 hrs by Immunoblot analysis relative to control. It counts as cell-based. To be noted: dose 2-2000 nM.
The target is the same in assay [6]. The experiment in a line: PROTAC activity at VHL/SOS1 in human NCI-H358 cells assessed as induction of SOS1 protein degradation at 0.1 uM incubated for 24 hrs by Immunoblot analysis relative to control. The format is cell-based.
Assay [7] has as its target T1, Son of sevenless homolog 1. In words: Binding affinity to GST-tagged human SOS1 (564 to 1049 residues) expressed in Escherichia coli BL21 (DE3) cells assessed as ternary complex formation by measuring dissociation constant incubated for 15 mins in the presence of 6His tagged human VCB by fluorescence polarization-based displacement assay. On the technique in general: Polarisation of emitted light reports the rotation of a fluorescent probe.

The target of assay [8] is von Hippel-Lindau disease tumor suppressor/Son of sevenless homolog 1 (Homo sapiens, UniProt P40337+Q07889). The experiment in a line: PROTAC activity at VHL/SOS1 in human NCI-H358 cells assessed as induction of SOS1 protein degradation incubated for 24 hrs by Immunoblot analysis. It counts as cell-based.

Consider `COc1cc2nc(C)nc(N[C@H](C)c3cc(N)cc(C(F)(F)F)c3)c2cc1C1CCN(C(=O)CCOCCC(=O)N[C@H](C(=O)N2C[C@H](O)C[C@H]2C(=O)N[C@@H](C)c2ccc(-c3scnc3C)cc2)C(C)(C)C)CC1`, for which the negative-log Kd (pKd) in assay [1] was 7.02; in assay [7], 7.47. Moreover, the Activity stood at 22.9% in assay [2] and 0% in assay [6]. The result in assay [3] was inactive. In assay [4], the Ratio is 2.8. Further, the Emax in assay [5] was 37.6%.

As to `COc1cc2nc(C)nc(N[C@H](C)c3cc(N)cc(C(F)(F)F)c3)c2cc1C1CCN(C(=O)CCCC(=O)N[C@H](C(=O)N2C[C@H](O)C[C@H]2C(=O)N[C@@H](C)c2ccc(-c3scnc3C)cc2)C(C)(C)C)CC1`, the Activity in assay [2] was determined as 11.7%; in assay [6] it was 9.28%.

As for `COc1cc2nc(C)nc(N[C@H](C)c3cc(N)cc(C(F)(F)F)c3)c2cc1C1CCN(C(=O)C2CCN(CCC(=O)N[C@H](C(=O)N3C[C@H](O)C[C@H]3C(=O)N[C@@H](C)c3ccc(-c4scnc4C)cc3)C(C)(C)C)CC2)CC1`, the Activity in assay [2] was found to be 22.6%; in assay [6], 21.7%.

`COc1cc2nc(C)nc(N[C@H](C)c3cc(N)cc(C(F)(F)F)c3)c2cc1C1CCN(C(=O)[C@H]2CC[C@H](C(=O)N[C@H](C(=O)N3C[C@H](O)C[C@H]3C(=O)N[C@@H](C)c3ccc(-c4scnc4C)cc3)C(C)(C)C)CC2)CC1`: the Activity in assay [2] is 8.52%; in assay [6], 3.24%.

With `COc1cc2nc(C)nc(N[C@H](C)c3cc(N)cc(C(F)(F)F)c3)c2cc1C1CCN(C(=O)CCCCCCCC(=O)N[C@H](C(=O)N2C[C@H](O)C[C@H]2C(=O)N[C@@H](C)c2ccc(-c3scnc3C)cc2)C(C)(C)C)CC1`, the Activity in assay [2] worked out at 80.2%; in assay [6], 31.4%.

As for `COc1cc2nc(C)nc(N[C@H](C)c3cc(N)cc(C(F)(F)F)c3)c2cc1C1CCN(C(=O)COCCOCC(=O)N[C@H](C(=O)N2C[C@H](O)C[C@H]2C(=O)N[C@@H](C)c2ccc(-c3scnc3C)cc2)C(C)(C)C)CC1`, the Activity in assay [2] worked out at 62.5%; in assay [6], 19.6%.

With `COc1cc2nc(C)nc(N[C@H](C)c3cc(N)cc(C(F)(F)F)c3)c2cc1C1CCN(C(=O)CCCOCC(=O)N[C@H](C(=O)N2C[C@H](O)C[C@H]2C(=O)N[C@@H](C)c2ccc(-c3scnc3C)cc2)C(C)(C)C)CC1`, the pKd in assay [1] was 7.20; in assay [7], 7.56. Also, the Activity was determined as 6.52% in assay [2] and 1.36% in assay [6]. In assay [3], the outcome was inactive. Moreover, the Ratio in assay [4] came out at 2.3. Besides, the Emax in assay [5] turned out to be 20.9%.

As to `COc1cc2nc(C)nc(N[C@H](C)c3cc(N)cc(C(F)(F)F)c3)c2cc1C1CCN(C(=O)CCCCCCCCC(=O)N[C@H](C(=O)N2C[C@H](O)C[C@H]2C(=O)N[C@@H](C)c2ccc(-c3scnc3C)cc2)C(C)(C)C)CC1`, the Activity in assay [2] and in assay [6] was 0% each time.

Take `COc1cc2nc(C)nc(N[C@H](C)c3cc(N)cc(C(F)(F)F)c3)c2cc1C1CCN(CCCCCC(=O)N[C@H](C(=O)N2C[C@H](O)C[C@H]2C(=O)N[C@@H](C)c2ccc(-c3scnc3C)cc2)C(C)(C)C)CC1`: the figures for the Activity in assay [2] and in assay [6] were 2.02% and 3.04%, respectively.

On to `COc1cc2nc(C)nc(N[C@H](C)c3cc(N)cc(C(F)(F)F)c3)c2cc1C1CCN(C(=O)CCCCC(=O)N[C@H](C(=O)N2C[C@H](O)C[C@H]2C(=O)N[C@@H](C)c2ccc(-c3scnc3C)cc2)C(C)(C)C)CC1`, for which the negative logarithm of the Kd (pKd) is 7.12 in assay [1] and 7.57 in assay [7]. Further, the results for the Activity in assay [2] and in assay [6] were 37% and 16.4%, respectively. For the same molecule, in assay [3], the outcome was inactive. In addition, the Ratio in assay [4] was 2.8. Also, in assay [5], the maximal effect (Emax) was found to be 42.9%.

Take `COc1cc2nc(C)nc(N[C@H](C)c3cc(N)cc(C(F)(F)F)c3)c2cc1C1CCN(CCCCCCCC(=O)N[C@H](C(=O)N2C[C@H](O)C[C@H]2C(=O)N[C@@H](C)c2ccc(-c3scnc3C)cc2)C(C)(C)C)CC1`: the Activity in assay [2] was determined as 7.32%; in assay [6], 9.25%.

With `COc1cc2nc(C)nc(N[C@H](C)c3cc(N)cc(C(F)(F)F)c3)c2cc1C1CCN(CCCCCCC(=O)N[C@H](C(=O)N2C[C@H](O)C[C@H]2C(=O)N[C@@H](C)c2ccc(-c3scnc3C)cc2)C(C)(C)C)CC1`, the pKd in assay [1] was 7.35; in assay [7], 7.79. The Activity in assay [2] was 10.7%; in assay [6], 9.77%. Moreover, in assay [3], the outcome was inactive. Further, the Ratio in assay [4] is 2.7. Besides, the Emax in assay [5] was 9.1%.

On to `COc1cc2nc(C)nc(N[C@H](C)c3cc(N)cc(C(F)(F)F)c3)c2cc1C1CCN(C(=O)CCCCCCC(=O)N[C@H](C(=O)N2C[C@H](O)C[C@H]2C(=O)N[C@@H](C)c2ccc(-c3scnc3C)cc2)C(C)(C)C)CC1`, for which the negative logarithm of the Kd (pKd) in assay [1] was 7.10; in assay [7], 7.57. The Activity in assay [2] amounted to 47.3%; in assay [6] it was 25.2%. Further, in assay [3], the outcome was inactive. For the same molecule, in assay [4], the Ratio worked out at 2.9. Moreover, the Emax in assay [5] came out at 39.7%.

As for `COc1cc2nc(C)nc(N[C@H](C)c3cc(N)cc(C(F)(F)F)c3)c2cc1C1CCN(C(=O)C2CN(CCC(=O)N[C@H](C(=O)N3C[C@H](O)C[C@H]3C(=O)N[C@@H](C)c3ccc(-c4scnc4C)cc3)C(C)(C)C)C2)CC1`, the Activity in assay [2] was 11.2%; in assay [6] it was 9.8%.

As to `COc1cc2nc(C)nc(N[C@H](C)c3cc(N)cc(C(F)(F)F)c3)c2cc1C1CCN(C(=O)COCCCC(=O)N[C@H](C(=O)N2C[C@H](O)C[C@H]2C(=O)N[C@@H](C)c2ccc(-c3scnc3C)cc2)C(C)(C)C)CC1`, the negative logarithm of the EC50 (pEC50) in assay [8] is 7.31. Besides, the figures for the pKd in assay [1] and in assay [7] were 6.81 and 7.76, respectively. The Activity in assay [2] was 90.2%; in assay [6], 54.6%. For the same molecule, in assay [4], the Ratio amounted to 8.9. For the same molecule, the maximum response (Emax) in assay [5] was found to be 97.9%.

`COc1cc2nc(C)nc(N[C@H](C)c3cc(N)cc(C(F)(F)F)c3)c2cc1C1CCN(C(=O)CCCCCCCCCC(=O)N[C@H](C(=O)N2C[C@H](O)C[C@H]2C(=O)N[C@@H](C)c2ccc(-c3scnc3C)cc2)C(C)(C)C)CC1`: the Activity in assay [2] was found to be 37.9%; in assay [6], 9.65%.

As a reminder, the pKd is −log10 of the Kd, conventionally taken in molar units. As a reminder, the Emax is the maximal effect, on the per cent scale that the assay sets. A word on the pEC50: it is the negative decadic logarithm of the EC50, by convention in mol/L.

The values above are taken from ChEMBL document CHEMBL5247656, “Discovery of a Potent, Cooperative, and Selective SOS1 PROTAC ZZ151 with In Vivo Antitumor Efficacy in KRAS-Mutant Cancers” (J Med Chem, 2023).
